Test results: PubChem BioAssay (NCI)
Values joined by “and” are separate entries in the source; they are usually repeats but may differ in a detail not shown here. Equal entries are not always repeated.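 Five concentrations, 48 hours, 96-well plates. Here, GI50 denotes the concentration required for 50% inhibition of growth. Definition used: TGI = concentration required for complete inhibition of growth.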

Legend:
Test in all cases: NCI-60 cell line screen, 48 h
BT-549 breast = system: BT-549 breast
CAKI-1 renal = system: CAKI-1 renal
COLO 205 colon = system: COLO 205 colon
HL-60(TB) leukemia = system: HL-60(TB) leukemia
HT29 colon = system: HT29 colon
MDA-MB-435 = system: MDA-MB-435
OVCAR-8 ovarian = system: OVCAR-8 ovarian
SF-539 CNS = system: SF-539 CNS
SN12C renal = system: SN12C renal
SNB-19 CNS = system: SNB-19 CNS

SMILES | TGI (BT-549 breast) | GI50 (CAKI-1 renal) | TGI (CAKI-1 renal) | GI50 (COLO 205 colon) | TGI (COLO 205 colon) | GI50 (HL-60(TB) leukemia) | TGI (HL-60(TB) leukemia) | GI50 (HT29 colon) | TGI (HT29 colon) | TGI (MDA-MB-435) | GI50 (OVCAR-8 ovarian) | TGI (OVCAR-8 ovarian) | TGI (SF-539 CNS) | GI50 (SN12C renal) | TGI (SN12C renal) | GI50 (SNB-19 CNS) | TGI (SNB-19 CNS) | GI50 (BT-549 breast) | GI50 (MDA-MB-435) | GI50 (SF-539 CNS)
CO[C@H]1C[C@](C)(O)Cc2cc3c(c(O)c21)C(=O)c1c(O)cc2c(c1C3=O)O[C@@H]1O[C@@]2(C)[C@H](O)[C@@H](N(C)C)[C@@H]1O | 7.3 µM | 0.114 µM | 2.1 µM and 1.59 µM | 1.46 µM | 2.97 µM and 8.57 µM | 0.159 µM | 0.797 µM and 1.64 µM | 1.56 µM | 5.79 µM and 15.6 µM | 5.23 µM | 1.07 µM | 3.36 µM and 4.97 µM | 2.3 µM and 2.89 µM | 0.56 µM | 2.57 µM and 3.48 µM | 0.578 µM | 5.95 µM and 7.5 µM |  |  | 
CCCCCCCC(=O)SCC/C=C/[C@@H]1CC(=O)NCc2nc(cs2)C2=N[C@@](C)(CS2)C(=O)N[C@@H](C(C)C)C(=O)N1 | > 66.8 µM | 2.75 µM | 17.6 µM | 0.0114 µM | 0.0302 µM | 0.013 µM | > 100 µM | < 0.01 µM | 0.0499 µM | 1.9 µM | 0.0234 µM | 16.7 µM | > 57.8 µM | 0.034 µM | > 100 µM | 0.0419 µM | > 41.1 µM | 0.0604 µM | < 0.01 µM | 0.0381 µM
CC(=O)/C=C/C1=C(c2csc3ccccc23)c2ccccc2CC1 | 55 µM | 32.4 µM | > 100 µM | 20.5 µM | 64.8 µM | 13.6 µM | 58.3 µM | 21.3 µM | > 100 µM | 70.7 µM | 30.4 µM | > 100 µM | 71 µM | 32.6 µM | > 100 µM | 32.5 µM | > 100 µM | 22.9 µM | 21.6 µM | 26.4 µM
C[C@H]1CNC(=O)c2cnn3ccc(nc23)N[C@H](C)c2cc(F)ccc2O1 | 2.52 µM | 0.343 µM | 1.59 µM | 0.779 µM | 4.33 µM | 4.66 µM | > 62.5 µM | 0.457 µM |  | > 91.2 µM | 2.54 µM | > 55.1 µM | 3.79 µM | 0.815 µM | 12.8 µM | 2.17 µM | 47.4 µM | 1.1 µM | 8.84 µM | 0.743 µM
COC(=O)c1c2c(c(C)[n+]([O-])c1C)C(=O)C=C(NCc1cccc(Cl)c1)C2=O | 2.63 µM | 0.204 µM | 1.95 µM | 0.292 µM | 0.961 µM | 0.287 µM | 0.935 µM | 0.31 µM |  | 0.251 µM | 0.275 µM | 1.21 µM | 1.49 µM | 0.298 µM | 1.02 µM | 1.01 µM | 2.18 µM | 1.26 µM | 0.116 µM | 0.525 µM
Cc1ccc2c(c1)C(=O)c1c-2c(OCCCN(C)C)nc2ccccc12 | 20.2 µM | 4.1 µM | 18.2 µM | 1.16 µM | 3.82 µM | 2.31 µM | 19.6 µM | 0.71 µM | 3.33 µM | 2.97 µM | 2.93 µM | 17 µM | 2.99 µM | 2.67 µM | 17.7 µM | 2.81 µM | 15.1 µM | 6.02 µM | 1.54 µM | 1.53 µM
CC(=O)NC(CSC1=C2NC(=O)\C=C/C=C/C=C\C(C)C(O)CC(=O)/C(C)=C\CC(O)/C=C/C(C)C(O)C(C)C=C(C)C(=O)c3c(O)c(C)cc(c3C1=O)C2=O)C(=O)O (centres undefined) | > 100 µM |  | > 100 µM |  | 79.6 µM |  | 73.2 µM |  | > 100 µM | > 100 µM |  | > 100 µM | > 100 µM |  | > 100 µM |  | > 100 µM |  |  | 
COC(=O)Nc1nc2ccc(C(=O)c3ccccc3)cc2[nH]1 | > 100 µM and 52.1 µM | 0.469 µM and 0.347 µM | > 100 µM | 0.331 µM and 0.274 µM | 1.12 µM and 3.74 µM | 0.255 µM and 0.233 µM | 0.636 µM | 0.363 µM and 0.26 µM | 8.21 µM and 11.2 µM | 0.485 µM and 0.211 µM | 0.757 µM and 0.486 µM | > 100 µM |  | 1.09 µM and 0.62 µM | > 100 µM | 0.587 µM and 0.471 µM | > 100 µM | 1.2 µM and 3.27 µM | 0.178 µM and 0.0343 µM | 0.577 µM and 0.238 µM
Nc1nc2cc(CC[C@H]3C[C@@H](n4ccc5c(N)ncnc54)[C@H](O)[C@@H]3O)ccc2cc1Br | 16 µM | 4.38 µM | 21.9 µM | 11.3 µM | 37.3 µM | 14.1 µM | 38.5 µM | 2.46 µM | 24.3 µM | 18.4 µM | 7.73 µM | 34.1 µM | 27.6 µM | 8.59 µM | 22.4 µM | 7.09 µM | 23.5 µM | 2.41 µM | 4.34 µM | 13.2 µM
Cc1nc2ccccn2c1NC(=O)NNC(=S)Nc1ccc(F)cc1 | > 100 µM | > 100 µM | > 100 µM | > 100 µM | > 100 µM | > 100 µM | > 100 µM | > 100 µM | > 100 µM | > 100 µM | > 100 µM | > 100 µM | > 100 µM | > 100 µM | > 100 µM | > 100 µM | > 100 µM | > 100 µM | > 100 µM | > 100 µM
C=C1SC(=Nc2ccccc2Cl)N(C(=O)c2sc3ccccc3c2Cl)C12CCCCC2 | > 100 µM | 3.05 µM | > 100 µM | 8.5 µM | 22.4 µM | 6.63 µM | 89.3 µM | 6.71 µM | > 100 µM | > 100 µM | 6.62 µM | > 100 µM | > 100 µM | 6.99 µM | > 100 µM | 7.56 µM | > 100 µM | 70.4 µM | 29.8 µM | 34.9 µM
O=C1C(=O)c2ccccc2C(O)=C1CCCc1ccc(C2CCCCC2)cc1 | 39.3 µM | 2.02 µM | 6.51 µM | 7.02 µM | 34.8 µM | 2.94 µM | 28.5 µM | 5.11 µM | > 100 µM | 22.6 µM | 6.01 µM | > 100 µM | 28.7 µM | 6.35 µM | > 100 µM | 5.66 µM | > 100 µM | 3.19 µM | 3.64 µM | 5.78 µM
